From patent US11446312B2, “Compounds that modulate von Willebrand factor levels and their use in the treatment of blood disorders” (SOCIETE DES PRODUITS NESTLE S.A., priority 2018, dated 2022)

System: vWF
Assay: Cultured Human Endothelial Cell vWF Expression Assay
Type: cell-based
Details: human iPSC-derived endothelial cells, 24h treatment, immunofluorescence intensity, vs DMSO control
Protocol: Human induced-pluripotent stem cell derived endothelial cells and accompanying growth media were purchased from Cellular Dynamics International. ECs were cultured according to the manufacturer's protocol (Cellular Dynamics International). ECs were plated at a density of 10′000-15′000 cells/cm^2 in culture vessels which have been coated with fibronectin (Invitrogen) and maintained in a low oxygen incubator (37° C., 5% CO2, 5% O2). The EC maintenance media was exchanged every other day and comprised of VascuLife Basal medium +VascuLife VEGF medium complete kit (Lifeline Cell Technologies). For all experiments ECs of passage 0 or 1 were used. The Celastrol used was a synthetic organic chemical manufactured in the United States and purchased from Novus (catalog reference number NBP2-29362). vWF primary antibody was obtained from Abcam (ab6994), tubulin primary antibody was obtained from Abcam (ab7291), and the secondary antibodies were Alexa fluor (anti-mouse and anti-rabbit) obtained from Thermo Fisher Scientific.
Endothelial cells were plated into 96-well glass-bottom plates at a density of 10,000 cells per well. […] Quantification of the fluorescence intensity (which is indicative of protein levels) was performed using the MetaXpress software. […]
The figure (FIG. 1) depicts the quantification of the data for human endothelial cells treated with celastrol as described above. […]

## CC1=C(O)C(=O)C=C2C1=CC=C1[C@@]2(C)CC[C@@]2(C)[C@@H]3C[C@](C)(C(=O)O)CC[C@]3(C)CC[C@]12C [Celastrol, 10-Hydroxy-2,4a,6a,9,12b,14a-hexamethyl-11-oxo-1,2,3,4,4a,5,6,6a,11,12b,13,14,14a,14b-tetradecahydro-picene-2-carboxylic acid]
1 μM celastrol
  vWF protein expression (normalized by the expression of tubulin): significantly (***p<0.001) reduces vWF protein expression
10 μM celastrol
  vWF protein expression (normalized by the expression of tubulin): significantly (***p<0.001) reduces vWF protein expression
